Measurements reported in ChEMBL document CHEMBL5465560, “Selectivity Literature for EUbOPEN Chemogenomic Library” (2024).
One block for each molecule: values may come before it.

Assays:
[1] = target: T1, Interleukin-1 receptor-associated kinase 3 (Homo sapiens) (UniProt Q9Y616); assay: Selectivity interaction (LanthaScreen Eu Kinase Binding Assay) EUB0001632a IRAK3; details: at 10 µM
T1 sequence (whole entry): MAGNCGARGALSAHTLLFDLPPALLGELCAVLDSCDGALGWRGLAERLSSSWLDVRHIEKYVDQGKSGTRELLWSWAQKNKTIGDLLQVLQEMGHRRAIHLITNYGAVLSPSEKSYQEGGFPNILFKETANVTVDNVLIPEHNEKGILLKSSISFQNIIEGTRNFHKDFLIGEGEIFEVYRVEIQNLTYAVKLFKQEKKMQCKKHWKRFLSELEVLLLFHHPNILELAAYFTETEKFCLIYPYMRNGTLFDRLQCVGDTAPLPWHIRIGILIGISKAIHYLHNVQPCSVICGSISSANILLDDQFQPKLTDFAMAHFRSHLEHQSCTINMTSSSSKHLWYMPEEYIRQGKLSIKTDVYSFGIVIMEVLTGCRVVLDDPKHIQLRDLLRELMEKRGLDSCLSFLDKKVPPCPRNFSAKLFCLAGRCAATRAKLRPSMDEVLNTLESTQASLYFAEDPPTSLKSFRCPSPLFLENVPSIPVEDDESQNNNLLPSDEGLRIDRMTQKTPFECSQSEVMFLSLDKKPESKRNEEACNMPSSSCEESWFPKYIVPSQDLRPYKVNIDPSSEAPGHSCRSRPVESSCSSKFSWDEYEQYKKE

[2] = target: T2, 5-hydroxytryptamine receptor 2C (Homo sapiens) (UniProt P28335); assay: Selectivity interaction (Panel of kinases, GPCRs, ion channels and transporters (enzymatic assay)) EUB0000223bCl HTR2C
T2 sequence (whole entry): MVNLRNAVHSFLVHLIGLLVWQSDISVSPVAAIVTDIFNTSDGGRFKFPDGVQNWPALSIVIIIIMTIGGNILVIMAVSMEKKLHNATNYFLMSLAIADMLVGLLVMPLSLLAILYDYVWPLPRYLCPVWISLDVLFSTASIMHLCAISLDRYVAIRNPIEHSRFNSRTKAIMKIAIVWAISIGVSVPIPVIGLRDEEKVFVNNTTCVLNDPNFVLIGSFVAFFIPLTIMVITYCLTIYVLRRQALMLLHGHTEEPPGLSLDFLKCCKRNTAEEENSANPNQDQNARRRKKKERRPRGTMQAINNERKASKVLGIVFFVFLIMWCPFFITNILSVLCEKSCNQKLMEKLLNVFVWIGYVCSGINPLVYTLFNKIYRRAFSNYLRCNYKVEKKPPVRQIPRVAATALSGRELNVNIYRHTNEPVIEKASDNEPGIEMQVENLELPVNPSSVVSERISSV

[3] = target: T3, Serine/threonine-protein kinase D3 (Homo sapiens) (UniProt O94806); assay: Selectivity interaction (KinomeScan (DiscoverX)) EUB0000045b PRKD3
T3 sequence (whole entry): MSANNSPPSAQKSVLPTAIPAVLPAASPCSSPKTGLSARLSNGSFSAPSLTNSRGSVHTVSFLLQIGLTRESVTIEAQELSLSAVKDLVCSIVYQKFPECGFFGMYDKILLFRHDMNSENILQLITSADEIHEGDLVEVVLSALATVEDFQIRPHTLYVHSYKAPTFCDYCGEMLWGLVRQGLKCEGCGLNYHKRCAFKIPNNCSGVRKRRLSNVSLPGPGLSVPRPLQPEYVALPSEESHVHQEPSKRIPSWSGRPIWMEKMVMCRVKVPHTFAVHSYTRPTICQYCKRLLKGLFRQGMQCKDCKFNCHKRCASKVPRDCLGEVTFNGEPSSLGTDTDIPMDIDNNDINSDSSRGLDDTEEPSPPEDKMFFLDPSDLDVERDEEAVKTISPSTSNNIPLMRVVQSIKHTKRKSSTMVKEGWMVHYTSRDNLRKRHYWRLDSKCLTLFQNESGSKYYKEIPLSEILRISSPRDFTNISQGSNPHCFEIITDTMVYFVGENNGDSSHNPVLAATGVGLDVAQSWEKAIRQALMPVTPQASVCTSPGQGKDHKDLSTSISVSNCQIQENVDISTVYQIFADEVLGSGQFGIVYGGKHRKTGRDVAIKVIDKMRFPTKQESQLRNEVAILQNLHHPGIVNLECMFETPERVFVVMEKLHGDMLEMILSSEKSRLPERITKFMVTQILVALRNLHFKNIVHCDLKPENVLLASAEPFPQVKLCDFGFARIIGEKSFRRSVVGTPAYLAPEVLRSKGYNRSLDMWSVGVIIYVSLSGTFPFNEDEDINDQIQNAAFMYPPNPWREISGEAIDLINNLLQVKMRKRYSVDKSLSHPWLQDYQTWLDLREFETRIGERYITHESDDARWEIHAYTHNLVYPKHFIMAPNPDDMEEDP

[4] = target: T4, Testis-specific serine/threonine-protein kinase 1 (Homo sapiens) (UniProt Q9BXA7); assay: Selectivity interaction (KinomeScan (DiscoverX)) EUB0001079a TSSK1B; details: at 1 µM
T4 sequence (whole entry): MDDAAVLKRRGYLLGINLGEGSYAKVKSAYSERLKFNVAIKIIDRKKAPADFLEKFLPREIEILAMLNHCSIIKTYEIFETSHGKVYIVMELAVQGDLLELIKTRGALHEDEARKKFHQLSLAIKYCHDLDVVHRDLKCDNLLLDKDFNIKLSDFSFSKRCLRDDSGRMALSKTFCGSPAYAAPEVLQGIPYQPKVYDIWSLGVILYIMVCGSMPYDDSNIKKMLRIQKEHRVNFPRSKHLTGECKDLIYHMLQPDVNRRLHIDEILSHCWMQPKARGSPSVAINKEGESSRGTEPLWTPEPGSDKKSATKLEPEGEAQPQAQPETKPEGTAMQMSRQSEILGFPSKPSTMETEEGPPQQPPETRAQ

[5] = target: T5, Histone-lysine N-methyltransferase SMYD3 (Homo sapiens) (UniProt Q9H7B4); details: at 10 µM
T5 sequence (whole entry): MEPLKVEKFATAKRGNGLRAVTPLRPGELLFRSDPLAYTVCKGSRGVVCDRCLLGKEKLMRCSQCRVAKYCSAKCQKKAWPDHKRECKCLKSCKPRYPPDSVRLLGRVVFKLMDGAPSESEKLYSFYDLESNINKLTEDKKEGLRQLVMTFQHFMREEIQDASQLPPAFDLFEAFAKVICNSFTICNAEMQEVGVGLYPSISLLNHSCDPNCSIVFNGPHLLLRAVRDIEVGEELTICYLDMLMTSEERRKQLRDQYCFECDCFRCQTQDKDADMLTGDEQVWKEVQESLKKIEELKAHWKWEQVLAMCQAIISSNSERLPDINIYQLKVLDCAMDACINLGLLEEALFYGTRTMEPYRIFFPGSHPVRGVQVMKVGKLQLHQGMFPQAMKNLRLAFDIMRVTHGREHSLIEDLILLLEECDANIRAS

[6] = target: Dual specificity protein kinase CLK4 (Homo sapiens, UniProt Q9HAZ1); assay: Selectivity interaction (Enzymatic assay) EUB0001550a CLK4
Dual specificity protein kinase CLK4, sequence (Q9HAZ1 whole entry): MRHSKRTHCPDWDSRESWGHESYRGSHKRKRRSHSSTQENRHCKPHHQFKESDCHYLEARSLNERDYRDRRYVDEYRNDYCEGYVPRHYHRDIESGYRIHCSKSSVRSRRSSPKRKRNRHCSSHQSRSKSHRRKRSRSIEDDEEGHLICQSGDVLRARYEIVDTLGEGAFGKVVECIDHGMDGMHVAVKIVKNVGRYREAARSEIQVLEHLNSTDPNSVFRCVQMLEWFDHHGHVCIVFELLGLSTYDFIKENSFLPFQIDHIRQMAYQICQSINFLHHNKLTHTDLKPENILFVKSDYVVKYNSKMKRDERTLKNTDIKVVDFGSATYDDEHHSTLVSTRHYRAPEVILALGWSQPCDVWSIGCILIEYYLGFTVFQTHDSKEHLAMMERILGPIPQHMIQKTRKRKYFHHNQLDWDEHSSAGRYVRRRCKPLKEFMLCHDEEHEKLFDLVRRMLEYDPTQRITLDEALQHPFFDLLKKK

% of inhibition [1]: -15.9%
Structure (SMILES): Cn1cc(-n2cnc3c(NCc4nc5cc(Cl)c(Cl)cc5[nH]4)nc(N4CCOCC4)nc32)cn1

% activity [5]: > 90%
Structure (SMILES): CNCCN1CCC(c2cc(CN(C)C(=O)c3cccc(Oc4ccccc4)c3)ccn2)CC1

IC50 [6]: 440 nM
Structure (SMILES): CN(C)CC#Cc1ccc2[nH]c3c(c2c1)-c1nc(N)ncc1CCC3

The next lines start with the molecule.

Structure (SMILES): COc1cc(C(=O)N2CC[C@@H](O)[C@@H](N)C2)cc2nc(-c3cc4ccccc4n3CC3CC3)n(C)c12
pXC50 [2]: < 4.4 M

Structure (SMILES): C=CC(=O)Nc1cc(-n2c(=O)ccc3cnc4ccc(-c5ccc(NS(C)(=O)=O)cc5)cc4c32)ccc1C
% of control ([3]; at 1 µM): 82%
% of control ([3]; at 10 µM): 68%

Structure (SMILES): Nc1cnc(N2CCc3cc(S(=O)(=O)Nc4c(F)cc(Cl)cc4F)cc(N4CCCC4=O)c32)nc1 [TP-020n]
% of control [4]: 100%
